# Reference: patent publication US9475789B2, “Use of polyenylpyrrole derivatives for treating inflammation” (WELLHEAD BIOLOGICAL TECHNOLOGY CORP., priority 2014, dated 2016)
# “Also recorded” adds a separate entry of the source.
# What was measured:
# IL-6 [1] = assay: IL-6 ELISA, LPS-activated J774A.1 macrophages; type: cell-based, murine; conditions: J774A.1 cells, LPS 1 μg/ml 24 h
# Procedure: (§1) (A) J774A.1 macrophages (4×10^5/ml), (B) peritoneal macrophages (4×10^5/ml), and (C) JAWSII dendritic cells (4×10^5/ml) were incubated with compound 1h or DMSO for 30 min followed by stimulating with LPS (1 μg/ml) for 24 h, then IL-6 and TNF-α concentration in culture medium were assayed by ELISA. The data are expressed as the mean±SD for three separate experiments. *, **, and *** indicate a significant difference at the level of p<0.05, p<0.01, p<0.001 respectively compared to LPS group.
# (§2) The effects of tested samples on IL-1β, TNF-α and IL-6 production were measured by ELISA according to the manufacturer's instruction. In brief, 50 μl of biotinylated antibody reagent and 50 μl of supernatant were added to an anti-mouse IL-1β, TNF-α and IL-6 precoated stripwell plate, and incubated at room temperature for 2 h. After washing the plate three times with washing buffer, 100 μl of diluted streptavidin-HRP concentrate was added to each well and incubated at room temperature for 30 min. The washing process was repeated; then 100 μl of a premixed tetramethylbenzidine substrate solution was added to each well and developed at room temperature in the dark for 30 min. Following the addition of 100 μl of stop solution to each well to stop the reaction, the absorbance of the plate was measured by a microplate reader at 450 nm wavelength.
# [2] = test system: NLRP3 inflammasome-mediated IL-1β secretion; assay: IL-1β ELISA, LPS+ATP-activated J774A.1 macrophages (NLRP3 inflammasome); type: cell-based, mouse
# Procedure: (A) J774A.1 macrophages (1×10^6/ml) and (B) peritoneal macrophages (1×10^5/ml) were incubated with compound 1h for 30 min followed by LPS (1 μg/ml) stimulating for 5.5 h, then the cells were stimulated with ATP (5 mM) for an additional 30 min. The IL-1β in the culture medium was measured by ELISA and the expression of active caspase-1 (p10) was measured by Western blot. In (C) and (D), J774A.1 macrophages (1×10^6/ml) were incubated with LPS (1 μg/ml) for 5.5 h, then cells were incubated with compound 1h for 30 min followed by stimulating with ATP (5 mM) for an additional 30 min. The IL-1β and IL-6 in the culture medium were measured by ELISA and the expression of active caspase-1 (p10) was measured by Western blot. In (E), J774A.1 macrophages (1×10^6/ml) were incubated with compound 1h for 30 min followed by LPS (1 μg/ml) stimulating for 6 h. The expression of NLRP3 and proIL-1β were measured by Western blot.
# The effects of tested samples on IL-1β, TNF-α and IL-6 production were measured by ELISA according to the manufacturer's instruction. […] Following the addition of 100 μl of stop solution to each well to stop the reaction, the absorbance of the plate was measured by a microplate reader at 450 nm wavelength.
# IL-6 [3] = assay: IL-6 ELISA, LPS-activated peritoneal macrophages; type: cell-based, C57BL/6 mice; conditions: LPS 1 μg/ml 24 h
# Procedure: as §1, §2
# TNF-α [4] = assay: TNF-α ELISA, LPS-activated peritoneal macrophages; type: cell-based, C57BL/6 mice; conditions: LPS 1 μg/ml 24 h
# Procedure: as §1, §2
# PKC-α = assay: Western blot of PKC-α phosphorylation, ATP-activated LPS-primed J774A.1 macrophages; type: cell-based, murine; conditions: compound 1h 20 μM
# Procedure: In (A), J774A.1 macrophages (1×10^6/ml) were incubated with LPS (1 μg/ml) for 5.5 h and then incubated with compound 1 h ([…]), DPI (100 μM), or DMSO (vehicle) for 30 min followed by ATP (5 mM) stimulating for the indicated time, then ROS levels were measured by detection of the fluorescence intensity of the fluorophore carboxyl-DCF and expressed relative to those at time zero. In (B), J774A.1 macrophages (1×10^6/ml) were incubated with compound 1h (20 μM), DPI (100 μM), or DMSO (vehicle) for 30 min followed by LPS (1 μg/ml) stimulating for 5.5 h, then the cells were stimulated with ATP (5 mM) for the indicated time. The ROS levels were measured by detection of the fluorescence intensity of the fluorophore carboxyl-DCF and expressed relative to those at time zero. In (C), LPS-primed J774A.1 macrophages (1×10^6/ml) were incubated with compound 1h (20 μM) or DMSO (vehicle) for 30 min followed by ATP (5 mM) stimulating for 0-60 min, then the phosphorylation level of PKC-α was analyzed by Western blot.
# Whole cell lysates were separated by SDS-PAGE and electrotransferred to a PVDF membrane. The membranes were incubated in blocking solution—5% nonfat milk in phosphate buffered saline with 0.1% Tween 20—at room temperature for 1 h. Each membrane was incubated with a specific primary antibody at room temperature for 2 h. […]
# TNF-α [5] = assay: TNF-α ELISA, RAW 264.7 macrophages; type: cell-based, murine
# Procedure: (§3) In (A) and (C), cells (5×10^5/ml) were incubated with polyenylpyrrole derivatives or DMSO (vehicle) for 30 min followed by stimulating with LPS (1 μg/ml) for 24 h, then NO (A), IL-6 and TNF-α (C) concentration in culture medium were assayed by Griess reaction and ELISA, respectively. In (B), cells (5×10^5/ml) were pretreated with polyenylpyrrole derivatives or DMSO for 30 min followed by stimulating with LPS (1 μg/ml) for 24 h, then the protein expression of iNOS and COX-2 were assayed by Western blot.
# as §2
# [6] = test system: LPS-induced NO generation in RAW 264.7 macrophages; assay: NO inhibitory assay (Griess reaction) in LPS-activated macrophages; type: cell-based, murine
# Procedure: as §3, with “blot. […] RAW 264.7 cells were seeded in 24-well plates at a density of 5×10^5 cells/ml, and then incubated with or without LPS (1 μg/ml) in the absence or presence of tested samples for 24 h. The effects of the tested samples on NO production were measured indirectly by analysis of nitrite levels using the Griess reaction.” for “blot.”
structure (smiles),measurement,setting,value
O=c1cc(O)cc(/C=C/C=C/C=C/C=C/c2[nH]ccc2Cl)o1 [Compound 1h],secretion of IL-6,IL-6 [1],reduced
same,IL-1β secretion,"[2]; J774A.1, compound before LPS and ATP treatment",significantly inhibited
same,IL-1β secretion,"[2]; LPS-primed J774A.1, compound 30 min before ATP stimulation",inhibited IL-1β secretion
same,secretion of IL-6,IL-6 [3],reduced
same,secretion of TNF-α,TNF-α [4],reduced
same,ATP-induced PKC-α phosphorylation,PKC-α,inhibited
same,TNF-α secretion,"TNF-α [5]; LPS-activated RAW 264.7, LPS 1 μg/ml 24 h","slight reduced by compounds 1h, 1i and 1n, but not significantly"
same,background level of TNF-α,"TNF-α [5]; compound alone, no LPS, data not shown",did not alter
same,EC50,"[6]; Mus musculus, RAW264.7, 50% inhibition of the LPS-induced NO generation, RAW 264.7, LPS 1 μg/ml, 24 h, read-out: ED50 (the source's name)",15 ± 2 µM
same,production of NO by LPS-activated cells,"[6]; RAW 264.7, LPS 1 μg/ml 24 h, Griess reaction",decreased production; also recorded: decreased the production of NO by LPS-activated cells in a dose-dependent manner
same,background level of NO,"[6]; compound alone, no LPS, RAW 264.7, data not shown",did not alter
